Reference: patent publication US4943646A, “Gallium complexes and solvent extraction of gallium” (Monsanto Company, priority 1987, dated 1990)
Where two headings read alike, the source gives them in different places.

How the values were obtained:
[1] = Extent of hydrolysis of hydroxamic acids after extraction, washing and stripping, by spectrophotographic analysis; details: for % DECOMPOSITION: additional, less careful determinations (untitled table); for % Decomposition (hydrolysis of hydroxamic acid): after extraction-wash-strip cycle, Table 4
Text: The method measures the apparent molecular absorbance at λ max where the maximum peak is obtained for a monohydroxamato iron (III) complex obtained by treating a specified quantity of the hydroxamic acid solution with an aqueous solution of ferric nitrate and nitric acid and n-butanol. The method is specific for hydroxamic acids and utilizes a peak in the 495-530 nanometer region of the spectrum.

[2] = Percentage of extractant pulled into the aqueous phase by Fe (III) in 0.25M H2SO4; format: physicochemical; details: Fe (III) in 0.25M H2SO4 (pH=0.3), 22 °C
Experimental: Tests were conducted on a series of hydroxamic acids to determine the percentages of the extractants pulled into an aqueous phase from an organic phase, by Fe (III) in 0.25M H2 SO4 (pH=0.3) at 22° C. The conditions represent a severe test of aqueous solubility since the pH favors FeA^++ formation, where A=hydroxamate anion. […] With regard to hydroxamic acids with n less than 6, a compound with n=4, i.e. N-methyl hexanohydroxamic acid, was approximately 35% pulled into the aqueous phase.

[3] = below 0.01M nitric acid; cited from earlier work
[4] = Organic solubility and viscosity of organic solutions (Table 13); format: physicochemical
Text: The organic solubilities and viscosity characteristics of N-alkylalkanohydroxamic acids, in comparison with N-H hydroxamic acids, are reported in Table 13.

[5] = Analysis of hydroxamic acid remaining after acid stripping (Example 11); format: physicochemical
Text: The organic solutions remaining after the acid stripping were washed with water and the petroleum ether was stripped under vacuum. […] Analysis of the unsubstituted naphthenohydroxamic acid indicated 91% decomposition. This example also indicates the usefulness of diluting the organic phase with a volatile, water immiscible organic solvent to provide more complete stripping of metal. After stripping the extractant is regenerated by distilling off the volatile solvent. Both organic liquids are recycled.

[6] = Hydroxamic acid in the aqueous phase (Example 24); format: physicochemical; details: for HA in aqueous phase: Table 19
Experimental: A solution was prepared containing 30% by weight N-methyl naphthenohydroxamic acid in kerosene solvent containing 5% by volume isodecanol. A gallium sulfate solution was prepared by mixing 1 ml of an aqueous gallium sulfate solution, 90.8 grams/liter concentration, with 25 ml deionized water. The thus prepared solution was blended with 25 ml of the N-methyl naphtheno hydroxamic acid solution and 800 microliters of 10N NaOH was added from a microburette. […] The gallium had been extracted into the organic solution. The aqueous phase was replaced with an equal volume of 0.1M sodium acetate, which gave a pH 8.21. A 60 microliter amount of 10N NaOH was added, which gave a 9.3 pH after the phases were blended for 20 minutes. […] Additional increments of l0N NaOH were added and gallium concentrations were determined after blending, with results as reported in Table 19. All blending operations were conducted at about 60° C.
The results in Table 19 indicate that the stripping into the aqueous phase is almost negligible at pH below about 11, and in fact the 15 ppm values reported are at about the limit of the analytical method used. […] It appears that efficient extraction can be effected under alkaline conditions ranging from pH 7 to about 11. In the initial result at pH 11.91, a large amount of the hydroxamic acid was stripped into the aqueous phase. However, after an additional amount of isodecanol was added, the phases were easily separated and hydroxamic acid was not found in the aqueous phase. Thus, for pH over about 11.5 it is greatly advantageous to have a coordination solvent such as a long-chain alkanol or other water-insoluble alcohol present in substantial quantity, such as around 20% or more by volume of the organic solvents present. The coordinating solvent modifier assists in phase separation and in avoiding undue loss of the hydroxamic acid to the aqueous stripping solution. Of course stripping the gallium can be accomplished despite significant loss of the hydroxamic acid, and the hydroxamic acid can be recycled with the stripping solution or recovered therefrom.

[7] = Stirred-beaker extraction, 2% H2SO4 wash and 30% H2SO4 strip of gallium from phosphate treater dust leachate (Examples 1-7); details: 5 minutes extraction
Experimental: A gallium extraction was carried out in a stirred beaker, utilizing N-ethylnaphthenohydroxamic acid as extracting agent. A 20 ml solution that was 1.6 M in the hydroxamic acid in a petroleum distillate fraction (Kermac 470-B) was provided in the beaker by mixing 11.632 grams of 80.6% purity N-ethylnaphthenohydroxamic with the petroleum distillate to bring the volume to 20 ml. An equal volume of an aqueous phosphate treater dust leachate solution containing gallium was added. The gallium level in the leachate solution was 597 ppm and its pH was 1.55. The extraction was carried out at circa 55°-60° C. with stirring, and sampling of the aqueous phase at intervals (with interruption of the stirring).
At the end of the extraction, the organic and aqueous phases were separated. The organic phase was washed three times with 20 ml portions of 2% sulfuric acid, the washings being conducted at 57°-59° C. for five minutes each. […] The organic phase was then combined with 20 ml of 30% H2 SO4 in a procedure to strip the gallium. The stripping was carried out at about 60° C. with sampling at intervals to determine the amount of gallium present in the aqueous phase.

CCCCCCCCCCc1ccc(C(=O)N(C)O)cc1 [N-methyl 4-decylbenzo HA]
% DECOMPOSITION [1]: 38.6%

CCCCCC(=O)N(C)O [N-methyl hexanohydroxamic acid]
extractant pulled into the aqueous phase [2]: approximately 35%

CCCCCCCC(=O)NO [caprylhydroxamic acid]
hydrolysis [3]: hydrolysis occurs rather slowly

N-ethylnaphthenohydroxamic acid
% DECOMPOSITION [1]: 1.0% | % Decomposition (hydrolysis of hydroxamic acid) [1]: -0.53%

N-methyl isostearohydroxamic acid
VISCOSITY ORGANIC SOL. ([4]; Table 13): V. Low | solubility in KEROSENE ([4]; Table 13): V. Soluble (V. Soluble = dissolves in molar quantities (>1) (V = very)) | solubility in KEROSENE WITH ISODECANOL ([4]; Table 13): V. Soluble (V. Soluble = dissolves in molar quantities (>1) (V = very))

N-methylnaphthenohydroxamic acid
VISCOSITY ORGANIC SOL. [4]: Medium | % Decomposition (hydrolysis of hydroxamic acid) (extraction-wash-strip cycle): +0.14% | % DECOMPOSITION (used extractant solutions): 4.99% | extractant concentration after stripping (original 1M) ([5]; possibly mechanical losses and some dilution): 0.8744 M | HA in aqueous phase ([6]; b715 pH 10.57, b719 after adding 10 ml isodecanol): negative | HA in aqueous phase ([6]; pH 11.91): 0.65 M | test for hydroxamic acid in aqueous phase ([6]; pH 8.26): negative

N-methylneodecanohydroxamic acid
% DECOMPOSITION [1]: 0.13%

N-n-propylnaphthenohydroxamic acid
% DECOMPOSITION [1]: 4.6% | % Decomposition (hydrolysis of hydroxamic acid) [1]: +0.74%

naphthenohydroxamic acid [reference compound]
VISCOSITY ORGANIC SOL. ([4]; Table 13): High | solubility in KEROSENE ([4]; Table 13): Low | solubility in KEROSENE WITH ISODECANOL ([4]; Table 13): Low | decomposition ([5]; after acid stripping): 91% | % DECOMPOSITION [1]: 42.5% | % Decomposition (hydrolysis of hydroxamic acid) [1]: 45% | % Decomposition (hydrolysis of hydroxamic acid) ([1]; listed as N--H naphthenohydroxamic acid): 45.0% | % Decomposition (hydrolysis of hydroxamic acid) ([1]; listed as unsubstituted hydroxamic acid): 45% | Ga remaining in aqueous phase [7]: 3.6 ppm

neodecanohydroxamic acid
Ga remaining in aqueous phase [7]: 3 ppm

neotridecanohydroxamic acid
VISCOSITY ORGANIC SOL. ([4]; Table 13): High | solubility in KEROSENE ([4]; Table 13): Soluble | solubility in KEROSENE WITH ISODECANOL ([4]; Table 13): Soluble
